Experiment [1] has as its target human SOS1 (loading of human K-Ras^G12C-GDP with fluorescent GTP-analog) (Homo sapiens, UniProt Q07889). The experiment can be described thus: Biochemical assay 3: K-Ras^G12C activation assay by hSOS1 (HTRF). The following applies: no GTP; for IC50: read-out: Assay 3 (KRAS-Activation by SOS no GTP) activity expressed as IC50; for inhibition at 20 µM: read-out: Assay 3 (KRAS-Activation by SOS no GTP) activity expressed as % inhibition at 20 μM.

Experiment [2] deals with K-Ras^G12C : hSOS1 interaction (Homo sapiens, UniProt Q07889). The experiment can be described thus: Biochemical assay 1: K-Ras^G12C interaction assay with hSOS1 (HTRF). The following applies: read-out: Assay 1 (KRAS-SOS Interaction) activity expressed as IC50. It counts as binding.

Usually IC50 stands for the point on the concentration scale where inhibition reaches its midpoint. The inhibition is the change of the read-out against control, counted positive when it falls.

`COc1cc2nc(C)nc(NC(C)c3ccc(-c4cnc5n4CCC5)s3)c2cc1OC` (single isomer, unassigned; enantiomer 1) [Example 328, N-{1-[5-(6,7-dihydro-5H-pyrrolo[1,2-a]imidazol-3-yl)thiophen-2-yl]ethyl}-6,7-dimethoxy-2-methylquinazolin-4-amine, Enantiomer 1]: the results for the IC50 in experiment [1] and in experiment [2] were 0.669 µM and 0.142 µM, respectively.

As for `COc1cc2nc(C)nc(NC(C)c3ccc(-c4cnc5n4CCC5)s3)c2cc1OC` (single isomer, unassigned; enantiomer 2) [Example 329, N-{1-[5-(6,7-dihydro-5H-pyrrolo[1,2-a]imidazol-3-yl)thiophen-2-yl]ethyl}-6,7-dimethoxy-2-methylquinazolin-4-amine, Enantiomer 2], the 50% inhibitory concentration (IC50) came to 10.6 µM in experiment [1] and 2.41 µM in experiment [2].

On to `COc1cc2nc(C)nc(NC(C)c3ccc(-c4ccc(F)cc4CNC(=O)[C@H]4CCCN4)s3)c2cc1OC` (stereo in doubt) [Example 316, N-[2-(5-{1-[(6,7-dimethoxy-2-methylquinazolin-4-yl)amino]ethyl}thiophen-2-yl)-5-fluorobenzyl]-prolinamide], for which the IC50 in experiment [1] worked out at 0.308 µM; in experiment [2] it was 0.271 µM.

In the case of `COc1cc2nc(C)nc(NC(C)c3cccc4scnc34)c2cc1OC` (stereo not drawn) [Example 14, N-[1-(1,3-benzothiazol-4-yl)ethyl]-6,7-dimethoxy-2-methylquinazolin-4-amine], the results for the IC50 in experiment [1] and in experiment [2] were 1.83 µM and 0.666 µM, respectively.

Take `COc1cc2nc(C)nc(NC(C)c3cccc4ccsc34)c2cc1OC` (stereo not drawn) [Example 15, N-[1-(1-benzothiophen-7-yl)ethyl]-6,7-dimethoxy-2-methylquinazolin-4-amine]: the values for the IC50 in experiment [1] and in experiment [2] were 0.324 µM and 0.126 µM, respectively.

As to `COc1cc2nc(C)nc(NC(C)c3cc(C)cc4[nH]ncc34)c2cc1OC` (stereo not drawn) [Example 16, 6,7-dimethoxy-2-methyl-N-[1-(6-methyl-1H-indazol-4-yl)ethyl]quinazolin-4-amine], the results for the 50% inhibitory concentration (IC50) in experiment [1] and in experiment [2] were 8.17 µM and 3.25 µM, respectively.

On to `COc1cc2nc(C)nc(NC(C)c3cccc4c3cnn4C)c2cc1OC` (stereo not drawn) [Example 17, 6,7-dimethoxy-2-methyl-N-[1-(1-methyl-1H-indazol-4-yl)ethyl]quinazolin-4-amine], for which the half-maximal inhibitory concentration (IC50) in experiment [1] stood at 0.712 µM; in experiment [2] it was 0.27 µM.

As to `COc1cc2nc(C)nc(NC(C)c3c(F)ccc4[nH]ncc34)c2cc1OC` (stereo not drawn) [Example 18, N-[1-(5-fluoro-1H-indazol-4-yl)ethyl]-6,7-dimethoxy-2-methylquinazolin-4-amine], the IC50 in experiment [1] was 10.5 µM; in experiment [2], 6.5 µM.

Take `COc1cc2nc(C)nc(NC(C)c3ccc4c(c3)OCCO4)c2cc1OC` (stereo not drawn) [Example 19, N-[1-(2,3-dihydro-1,4-benzodioxin-6-yl)ethyl]-6,7-dimethoxy-2-methylquinazolin-4-amine]: the inhibition at 20 µM in experiment [1] is 44%. Also, the IC50 in experiment [2] was 7.78 µM.

Regarding `COc1cc2nc(C)nc(NC(C)c3cc4ccccc4o3)c2cc1OC` (stereo not drawn) [Example 20, N-[1-(1-benzofuran-2-yl)ethyl]-6,7-dimethoxy-2-methylquinazolin-4-amine], the inhibition at 20 µM in experiment [1] worked out at 41%. For the same compound, the IC50 in experiment [2] was 8.42 µM.

For `COc1cc2nc(C)nc(NC(C)c3cccc(OC)c3OC)c2cc1OC` (stereo not drawn) [Example 21, N-[1-(2,3-dimethoxyphenyl)ethyl]-6,7-dimethoxy-2-methylquinazolin-4-amine], the IC50 turned out to be 11.1 µM in experiment [1] and 3.16 µM in experiment [2].

As to `COc1cc2nc(C)nc(N[C@H](C)c3cccc(-c4ccccc4CN)c3)c2cc1OC` [Example 258, N-{(1R)-1-[2′-(aminomethyl)biphenyl-3-yl]ethyl}-6,7-dimethoxy-2-methylquinazolin-4-amine], the figures for the concentration for half-maximal inhibition (IC50) in experiment [1] and in experiment [2] were 0.245 µM and 0.204 µM, respectively.

Regarding `COc1cc2nc(C)nc(NC(C)c3csc(-c4ccccc4CN)c3)c2cc1OC` (stereo not drawn) [Example 259, N-[1-{5-[2-(aminomethyl)phenyl]thiophen-3-yl}ethyl]-6,7-dimethoxy-2-methylquinazolin-4-amine], the IC50 in experiment [1] came to 0.65 µM; in experiment [2], 0.402 µM.

Turning to `COc1cc2nc(C)nc(N[C@H](C)c3cccc(CN)c3)c2cc1OC` [Example 260, N-{(1R)-1-[3-(aminomethyl)phenyl]ethyl}-6,7-dimethoxy-2-methylquinazolin-4-amine], the results for the 50% inhibitory concentration (IC50) in experiment [1] and in experiment [2] were 5.68 µM and 4.88 µM, respectively.

On to `COc1cc2nc(C)nc(N[C@H](C)c3cccc(-c4cnc5n4CCC5)c3)c2cc1OC` [Example 261, N-{(1R)-1-[3-(6,7-dihydro-5H-pyrrolo[1,2-a]imidazol-3-yl)phenyl]ethyl}-6,7-dimethoxy-2-methylquinazolin-4-amine], for which the half-inhibitory concentration (IC50) came to 1.1 µM in experiment [1] and 0.839 µM in experiment [2].

`COc1cc2nc(C)nc(NC(C)c3ccc(-c4ccccc4CN(C)C)s3)c2cc1OC` (stereo not drawn) [Example 262, N-[1-(5-{2-[(dimethylamino)methyl]phenyl}thiophen-2-yl)ethyl]-6,7-dimethoxy-2-methylquinazolin-4-amine]: the half-maximal inhibitory concentration (IC50) worked out at 0.0511 µM in experiment [1] and 0.0403 µM in experiment [2].

With `CNCc1ccccc1-c1cc(C(C)Nc2nc(C)nc3cc(OC)c(OC)cc23)cs1` (stereo not drawn) [Example 263, 6,7-dimethoxy-2-methyl-N-[1-(5-{2-[(methylamino)methyl]phenyl}thiophen-3-yl)ethyl]quinazolin-4-amine], the IC50 was found to be 0.324 µM in experiment [1] and 0.237 µM in experiment [2].

On to `COc1cc2nc(C)nc(NC(C)c3cc(Br)cs3)c2cc1OC` (stereo not drawn) [Example 264, N-[1-(4-bromothiophen-2-yl)ethyl]-6,7-dimethoxy-2-methylquinazolin-4-amine], for which the results for the half-inhibitory concentration (IC50) in experiment [1] and in experiment [2] were 4.61 µM and 5.94 µM, respectively.

Regarding `COc1cc2nc(C)nc(NC(C)c3ccc(-c4cccc(CN)c4)s3)c2cc1OC` (stereo not drawn) [Example 265, N-[1-{5-[3-(aminomethyl)phenyl]thiophen-2-yl}ethyl]-6,7-dimethoxy-2-methylquinazolin-4-amine], the IC50 was determined as 1.11 µM in experiment [1] and 2.77 µM in experiment [2].

Regarding `COc1cc2nc(C)nc(NC(C)c3ccc(-c4ccc(CN)cc4)s3)c2cc1OC` (stereo not drawn) [Example 266, N-[1-{5-[4-(aminomethyl)phenyl]thiophen-2-yl}ethyl]-6,7-dimethoxy-2-methylquinazolin-4-amine], the IC50 in experiment [1] was determined as 3.74 µM; in experiment [2] it was 3.61 µM.

Regarding `COc1cc2nc(C)nc(NC(C)c3cc(-c4ccn(CCN5CCCC5)n4)cs3)c2cc1OC` (stereo not drawn) [Example 267, 6,7-dimethoxy-2-methyl-N-[1-(4-{1-[2-(pyrrolidin-1-yl)ethyl]-1H-pyrazol-3-yl}thiophen-2-yl)ethyl]quinazolin-4-amine], the half-inhibitory concentration (IC50) in experiment [1] turned out to be 1.78 µM; in experiment [2] it was 3.39 µM.

As to `CNCc1ccccc1-c1cccc([C@@H](C)Nc2nc(C)nc3cc(OC)c(OC)cc23)c1` [Example 268, 6,7-dimethoxy-2-methyl-N-[(1R)-1-{2′-[(methylamino)methyl]biphenyl-3-yl}ethyl]quinazolin-4-amine], the concentration for half-maximal inhibition (IC50) was determined as 0.189 µM in experiment [1] and 0.166 µM in experiment [2].

Take `COc1cc2nc(C)nc(NC(C)c3cc(-c4ccc(F)cc4CN)cs3)c2cc1OC` (stereo not drawn) [Example 269, N-[1-{4-[2-(aminomethyl)-4-fluorophenyl]thiophen-2-yl}ethyl]-6,7-dimethoxy-2-methylquinazolin-4-amine]: the figures for the IC50 in experiment [1] and in experiment [2] were 0.135 µM and 0.162 µM, respectively.

Regarding `COc1cc2nc(C)nc(NC(C)c3cc(-c4ccccc4CN)cs3)c2cc1OC` (stereo not drawn) [Example 270, N-[1-{4-[2-(aminomethyl)phenyl]thiophen-2-yl}ethyl]-6,7-dimethoxy-2-methylquinazolin-4-amine], the half-maximal inhibitory concentration (IC50) in experiment [1] was 0.098 µM; in experiment [2], 0.0914 µM.

`COc1cc2nc(C)nc(NC(C)c3cc(-c4cnc5n4CCC5)cs3)c2cc1OC` (stereo not drawn) [Example 272, N-{1-[4-(6,7-dihydro-5H-pyrrolo[1,2-a]imidazol-3-yl)thiophen-2-yl]ethyl}-6,7-dimethoxy-2-methylquinazolin-4-amine]: the half-inhibitory concentration (IC50) turned out to be 2.5 µM in experiment [1] and 1.82 µM in experiment [2].

For `COc1cc2nc(C)nc(NC(C)c3cc(-c4ccn(CCO)n4)cs3)c2cc1OC` (stereo not drawn) [Example 273, 2-[3-(5-{1-[(6,7-dimethoxy-2-methylquinazolin-4-yl)amino]ethyl}thiophen-3-yl)-1H-pyrazol-1-yl]ethanol], the figures for the IC50 in experiment [1] and in experiment [2] were 3.63 µM and 2.32 µM, respectively.

As to `COc1cc2nc(C)nc(N[C@H](C)c3cccc(-c4ccc(F)cc4CN)c3)c2cc1OC` [Example 274, N-{(1R)-1-[2′-(aminomethyl)-4′-fluorobiphenyl-3-yl]ethyl}-6,7-dimethoxy-2-methylquinazolin-4-amine], the concentration for half-maximal inhibition (IC50) was 0.214 µM in experiment [1] and 0.13 µM in experiment [2].

With `COc1cc2nc(C)nc(NC(C)c3ccc(-c4ccc(CN)o4)s3)c2cc1OC` (stereo not drawn) [Example 275, N-[1-{5-[5-(aminomethyl)furan-2-yl]thiophen-2-yl}ethyl]-6,7-dimethoxy-2-methylquinazolin-4-amine], the IC50 was found to be 6.37 µM in experiment [1] and 2.8 µM in experiment [2].

Consider `COc1cc2nc(C)nc(NC(C)c3ccc(-c4ccc(CN)s4)s3)c2cc1OC` (stereo not drawn) [Example 276, N-{1-[5′-(aminomethyl)-2,2′-bithiophen-5-yl]ethyl}-6,7-dimethoxy-2-methylquinazolin-4-amine], for which the values for the half-maximal inhibitory concentration (IC50) in experiment [1] and in experiment [2] were 2.16 µM and 1.41 µM, respectively.

For the compound `COc1cc2nc(C)nc(NC(C)c3ccc(-c4ccccc4CNCC(=O)c4c[nH]c5ccccc45)s3)c2cc1OC` (stereo not drawn) [Example 277, 2-{[2-(5-{1-[(6,7-dimethoxy-2-methylquinazolin-4-yl)amino]ethyl}thiophen-2-yl)benzyl]amino}-1-(1H-indol-3-yl)ethanone], the IC50 in experiment [1] was 0.263 µM; in experiment [2], 0.214 µM.

The record behind these values is patent US20240083857A1, “2-Methyl-Quinazolines” (Bayer Pharma Aktiengesellschaft, priority 2017, published 2024).
